Results from article PMC4472559 (Journal of the American Chemical Society, 2015).

Biological target: transthyretin (TTR^WT) (Homo sapiens, UniProt P02766)
Experiment: isothermal titration calorimetry
Assay type: binding

## O=S(=O)(F)Oc1ccc(-c2nnc(-c3cc(Cl)c(O)c(Cl)c3)o2)cc1 [compound 4, probe 4]
  Kd: 2 nM
